Laboratory results reported in PMC7413254 (Nature Communications, 2020).
Values joined by “and” are separate entries in the source; they are usually repeats but may differ in a detail not shown here. Identical values can stand only once.

Experiments:
PfCRT [1] = assay: Potential co-substrates tested for influx of VF-6 via PfCRT into the oocyte; assay type: cell-based, Plasmodium falciparum; parameters: key: X: Compounds that have been tested as potential co-substrates but are not required for influx of VF-6 via PfCRT into the oocyte
PfNT1 = target: T1, PfNT1 (Plasmodium falciparum, UniProt Q8IDM6); assay: cell-based; assay type: cell-based; details: SEM
T1 construct: expressed in transfected cells; host or cells: Xenopus laevis oocytes (stage V-VI), cRNA-injected
T1 sequence (Q8IDM6 whole entry): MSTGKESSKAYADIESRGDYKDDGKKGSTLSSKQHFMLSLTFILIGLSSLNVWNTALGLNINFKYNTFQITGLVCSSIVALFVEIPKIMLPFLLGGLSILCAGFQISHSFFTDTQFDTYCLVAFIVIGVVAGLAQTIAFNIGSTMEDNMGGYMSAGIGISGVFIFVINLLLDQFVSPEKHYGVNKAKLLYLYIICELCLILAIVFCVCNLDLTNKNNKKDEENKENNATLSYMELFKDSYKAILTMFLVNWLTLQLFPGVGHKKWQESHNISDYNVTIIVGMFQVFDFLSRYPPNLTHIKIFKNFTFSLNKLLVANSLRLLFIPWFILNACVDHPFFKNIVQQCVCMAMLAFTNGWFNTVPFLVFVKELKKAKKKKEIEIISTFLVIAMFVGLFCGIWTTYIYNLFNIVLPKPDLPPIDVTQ
In short: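 Transport measured in Xenopus oocytes expressing the transporters, 1.5 h at 27.5 °C in ND96 pH 5.5 unless noted. For trans-stimulation, VF-6 injected in 25 nL ND96 at pH 5.0–7.0 or Na^+-free (choline) buffer; intracellular levels based on ~400 nL oocyte volume. Ten oocytes per treatment, ≥4 experiments.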

non-expressing oocytes [2] = assay type: cell-based, Xenopus laevis; details: SEM
In short: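 Oocytes (ten per treatment, ≥4 independent frogs/days) were preloaded by injecting VF-6 in 25 nL ND96 at pH 5.0, 5.5, 6.0 or 7.0, or Na^+-free choline buffer, then uptake run 1.5 h, 27.5 °C, ND96 pH 5.5 by default. Internal concentrations assumed ~400 nL oocyte volume.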

PfCRT [3] = assay: Test of solutes as potential co-substrates for influx of VF-6 via PfCRT into the oocyte; assay type: cell-based, Plasmodium falciparum; parameters: key: X: Compounds that have been tested as potential co-substrates but are not required for influx of VF-6 via PfCRT into the oocyte; details: X = tested
non-expressing oocytes [4] = assay: cells; assay type: cell-based, Xenopus laevis
In short: (§1)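 Assay buffer ND96 (10 mM MES, 10 mM Tris-base) held at pH 5.5 to mimic vacuole lumen; uptake measured inward from this acidic medium over 1.5 h at 27.5 °C.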

PfCRT [5] = assay: Influx of VF-6 via PfCRT into the oocyte, solutes tested as potential co-substrates; assay type: cell-based, Plasmodium falciparum; parameters: key: X: Compounds that have been tested as potential co-substrates but are not required for influx of VF-6 via PfCRT into the oocyte; details: X marks the solute
PfCRT^3D7 = PfCRT^3D7 (Plasmodium falciparum, UniProt Q8IBZ9); assay: cell-based; assay type: cell-based
Chain of PfCRT^3D7 (Q8IBZ9 59-398): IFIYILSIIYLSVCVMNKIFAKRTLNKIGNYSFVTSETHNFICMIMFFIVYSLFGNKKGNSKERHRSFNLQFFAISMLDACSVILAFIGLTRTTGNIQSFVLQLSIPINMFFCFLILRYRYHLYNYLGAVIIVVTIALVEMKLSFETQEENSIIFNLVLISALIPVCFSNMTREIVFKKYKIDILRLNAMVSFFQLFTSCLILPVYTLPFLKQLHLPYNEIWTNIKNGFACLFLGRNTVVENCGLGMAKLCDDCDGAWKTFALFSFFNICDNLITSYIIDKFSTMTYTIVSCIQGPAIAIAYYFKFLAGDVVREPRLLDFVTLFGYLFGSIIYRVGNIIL
Text: The orientation of PfCRT in the parasite’s DV membrane, and also in the oocyte plasma membrane, is such that its N- and C-termini extend into the cytosol. The oocytes were suspended in a reaction buffer adjusted to pH 5.5 to mimic the pH of the DV lumen[1],[2]. In this scenario, the transport of a substrate via PfCRT from the acidic extracellular solution into the oocyte cytosol[15] is analogous to the parasite’s PfCRT-mediated efflux of a substrate from the acidic DV and into the cytosol. Unless specified otherwise, this is the direction in which substrate transport was measured in the oocyte assays.
Unless specified otherwise, the transport assays were conducted over 1.5 h at 27.5 °C and the reaction buffer was ND96 (96 mM NaCl, 2 mM KCl, 1 mM MgCl2, 1.8 mM CaCl2, 10 mM MES and 10 mM Tris-base) at pH 5.5.
Ten oocytes were washed twice with the relevant ND96 buffer. […] The assay was terminated by removing the reaction buffer and washing the oocytes with ice-cold ND96 buffer. The oocytes were lysed in 10% (w/v) sodium dodecyl sulfate (SDS) and the radioactivity accumulated within each oocyte was measured with a MicroBeta^2 microplate liquid scintillation analyser (PerkinElmer).
At least four independent experiments were performed (on different days and using oocytes from different frogs), and within each experiment measurements were made from ten oocytes per treatment.

PfCRT^Dd2 = PfCRT^Dd2 (Plasmodium falciparum, UniProt Q9N623, A220S/I356T/K76T/M74I/N326S/N75E/Q271E/R371I); assay: [3H]CQ uptake into Xenopus oocytes, cis-inhibition by unlabelled solute; assay type: cell-based; details: for PfCRT-mediated [3H]CQ transport, cis-inhibition (% PfCRTDd2 control): PfCRTDd2 oocytes, background [3H]CQ accumulation subtracted, normalised to oocyte type control; for Uptake of [3H]CQ (% PfCRTDd2 control), cis-inhibition, PfCRTDd2: total [3H]CQ transport, mean ± SEM, SEM
Chain of PfCRT^Dd2 (Q9N623 whole entry A220S/I356T/K76T/M74I/N326S/N75E/Q271E/R371I): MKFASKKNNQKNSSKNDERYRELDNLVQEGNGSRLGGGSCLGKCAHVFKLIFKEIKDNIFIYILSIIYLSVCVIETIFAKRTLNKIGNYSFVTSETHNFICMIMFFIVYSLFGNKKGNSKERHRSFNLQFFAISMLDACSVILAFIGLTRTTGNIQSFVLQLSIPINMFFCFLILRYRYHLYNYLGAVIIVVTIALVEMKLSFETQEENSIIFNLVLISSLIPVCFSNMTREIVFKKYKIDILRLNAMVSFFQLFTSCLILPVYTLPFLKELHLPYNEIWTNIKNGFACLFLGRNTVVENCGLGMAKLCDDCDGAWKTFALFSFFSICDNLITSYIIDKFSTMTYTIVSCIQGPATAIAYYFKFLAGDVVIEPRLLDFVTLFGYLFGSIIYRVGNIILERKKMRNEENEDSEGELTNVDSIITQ
In short: as §1

PfCRT^Ecu1110 = PfCRT^Ecu1110 (Plasmodium falciparum, UniProt Q9N623, A220S/I356L/K76T/N326D); assay: as above; assay type: cell-based; details: for Uptake of [3H]CQ (% PfCRTEcu1110 control), cis-inhibition / Uptake of [3H]CQ (% PfCRTDd2 control), cis-inhibition, PfCRTEcu1110: total [3H]CQ transport; for Uptake of [3H]CQ (% PfCRTEcu1110 control), cis-inhibition: normalised to the oocyte type control; for [3H]CQ transport (% PfCRTEcu1110 control), cis-inhibition, PfCRTEcu1110: PfCRT-mediated component (background subtracted), sheet title says normalised to PfCRTDd2 control; for [3H]CQ transport (% PfCRTEcu1110 control), cis-inhibition, PfCRTEcu1110 / Uptake of [3H]CQ (% PfCRTDd2 control), cis-inhibition, PfCRTEcu1110: mean ± SEM, SEM
Chain of PfCRT^Ecu1110 (Q9N623 whole entry A220S/I356L/K76T/N326D): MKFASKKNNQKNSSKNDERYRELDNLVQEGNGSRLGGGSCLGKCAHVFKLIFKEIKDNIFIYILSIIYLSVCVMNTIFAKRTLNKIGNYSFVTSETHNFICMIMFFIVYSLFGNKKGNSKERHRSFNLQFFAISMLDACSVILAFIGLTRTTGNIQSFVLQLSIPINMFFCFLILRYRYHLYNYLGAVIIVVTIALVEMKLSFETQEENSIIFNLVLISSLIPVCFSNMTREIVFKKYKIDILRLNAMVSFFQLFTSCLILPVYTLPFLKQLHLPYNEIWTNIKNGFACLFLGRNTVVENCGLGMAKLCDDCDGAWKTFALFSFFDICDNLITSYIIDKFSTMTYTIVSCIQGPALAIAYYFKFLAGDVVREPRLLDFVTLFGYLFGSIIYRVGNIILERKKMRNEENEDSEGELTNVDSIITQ
In short: as §1

NCC(=O)O [L-glycine]
Tested as potential co-substrate but not required for influx of VF-6 via PfCRT into the oocyte (PfCRT [1]): X | Uptake of [3H]CQ (% PfCRTDd2 control), trans-stimulation, PfNT1 (PfNT1): 2.9 ± 0.03 % PfCRTDd2 control | Uptake of [3H]CQ (% PfCRTDd2 control), trans-stimulation, non-expressing oocytes (non-expressing oocytes [2]): 2.8 ± 0.05 % PfCRTDd2 control | Tested as potential co-substrate but not required for influx of VF-6 via PfCRT into the oocyte (PfCRT [3]): X | Uptake of [3H]CQ (% non-expressing oocyte control), cis-inhibition (non-expressing oocytes [4]): 100 ± 4.6 % non-expressing oocyte control and 98 ± 7.4 % non-expressing oocyte control and 100 ± 3.5 % non-expressing oocyte control | Uptake of [3H]CQ (% PfCRTDd2 control), cis-inhibition, non-expressing oocytes (non-expressing oocytes [4]; SEM): 3.1 ± 0.09 % PfCRTDd2 control and 2.2 ± 0.03 % PfCRTDd2 control and 2.7 ± 0.03 % PfCRTDd2 control | Compounds that have been tested as potential co-substrates but are not required for influx of VF-6 via PfCRT into the oocyte (PfCRT [5]): X | Uptake of [3H]CQ (% PfCRT3D7 control), cis-inhibition (PfCRT^3D7): 100 ± 3.6 % PfCRT3D7 control and 100 ± 4.8 % PfCRT3D7 control | Uptake of [3H]CQ (% PfCRTDd2 control), cis-inhibition, PfCRT3D7 (PfCRT^3D7; SEM): 3.6 ± 0.07 % PfCRTDd2 control and 2.1 ± 0.01 % PfCRTDd2 control and 2.9 ± 0.04 % PfCRTDd2 control | PfCRT-mediated [3H]CQ transport, cis-inhibition (% PfCRTDd2 control) (PfCRT^Dd2; [test solute] = 1 mM): 94 ± 3.7 % PfCRTDd2 control | PfCRT-mediated [3H]CQ transport, cis-inhibition (% PfCRTDd2 control) (PfCRT^Dd2; [test solute] = 2 mM): 93 ± 3.1 % PfCRTDd2 control | Uptake of [3H]CQ (% PfCRTDd2 control), cis-inhibition, PfCRTDd2 (PfCRT^Dd2; [test solute] = 0.5 mM): 97 ± 3.3 % PfCRTDd2 control | Uptake of [3H]CQ (% PfCRTDd2 control), cis-inhibition, PfCRTDd2 (PfCRT^Dd2; [test solute] = 2 mM): 95 ± 3.6 % PfCRTDd2 control | Uptake of [3H]CQ (% PfCRTEcu1110 control), cis-inhibition (PfCRT^Ecu1110; PfCRTEcu1110 oocytes, [test solute] = 0.5 mM): 95 ± 4.2 % PfCRTEcu1110 control | Uptake of [3H]CQ (% PfCRTEcu1110 control), cis-inhibition (PfCRT^Ecu1110; PfCRTEcu1110 oocytes, [test solute] = 1 mM): 100 ± 3.2 % PfCRTEcu1110 control | PfCRT-mediated [3H]CQ transport, cis-inhibition (% PfCRTEcu1110 control) (PfCRT^Ecu1110; [test solute] = 0.5 mM, PfCRTEcu1110 oocytes, background [3H]CQ accumulation subtracted, normalised to oocyte type control): 94 ± 5.1 % PfCRTEcu1110 control | [3H]CQ transport (% PfCRTEcu1110 control), cis-inhibition, PfCRTEcu1110 (PfCRT^Ecu1110; [test solute] = 0.5 mM): 28 ± 0.5 % PfCRTEcu1110 control | [3H]CQ transport (% PfCRTEcu1110 control), cis-inhibition, PfCRTEcu1110 (PfCRT^Ecu1110; [test solute] = 1 mM): 30 ± 0.5 % PfCRTEcu1110 control | [3H]CQ transport (% PfCRTEcu1110 control), cis-inhibition, PfCRTEcu1110 (PfCRT^Ecu1110; [test solute] = 2 mM): 29 ± 0.4 % PfCRTEcu1110 control | Uptake of [3H]CQ (% PfCRTDd2 control), cis-inhibition, PfCRTEcu1110 (PfCRT^Ecu1110; [test solute] = 0.5 mM): 31 ± 1.5 % PfCRTDd2 control | Uptake of [3H]CQ (% PfCRTDd2 control), cis-inhibition, PfCRTEcu1110 (PfCRT^Ecu1110; [test solute] = 1 mM): 33 ± 1.0 % PfCRTDd2 control
